The source of these data is US20240166617A1, “PHOSPHOINOSITIDE 3 KINASE BETA INHIBITORS AND COMPOSITIONS AND METHODS THEREOF” (Geode Therapeutics Inc., priority 2021, published 2024).

This experiment relates to phosphorylation of AKT in HCC70 cells. Kind of experiment: Cellular assay: phosphorylation of AKT in HCC70 cells (western blotting). The class given is cell-based. The note with it: Homo sapiens, HCC70, 1 h. As for the experimental part: Cellular activity of PI3Kβ inhibitors was determined by quantifying the phosphorylation of AKT in HCC70 cells. AKT phosphorylated at Ser473 and Thr308 were measured using western blotting and specific primary antibodies from Cell Signaling (CST), Danvers, MA. On day 1, HCC70 cells (ATCC #CRL-2315) were seeded into Falcon 12-well cell Culture Plate (Corning #353043) at 100,000 cells per well, in 1 ml complete culture medium (RPMI-1640, GIBCO #11875093) containing 10% heat inactivated FBS (GIBCO #10438026), 1% Pen-Strep (GIBCO #15140122) and incubated at 37° AC, 5% CO2 overnight. On day 2, compound (500 nM) or DMSO (0.1%, Sigma Aldrich #8418) was added and cells were further incubated for 60 min at 37° AC, 5% CO2 in a total volume of 1 ml fresh medium.
At the end of the cell treatment period, media were removed by aspiration and adherent cells were lysed in 100 uL RIPA buffer (Sigma Aldrich #R0278). Equal volume (15 uL) of proteins was resolved by SDS-PAGE and transferred to PVDF (Millipore #IPFL00010) membrane for immunoblot analysis. Primary antibodies to the following proteins were used for immunoblotting: phosphor-AKT (Ser473) (CST #4060), phosphor-AKT (Thr308) (CST #2965), total AKT (CST #9272). Secondary goat anti-rabbit IgG fluorophore conjugated antibody (Invitrogen #A21109) was used to visualize the indicated proteins on an Odyssey CLx imaging system (Li-Cor). Quantification of band intensities was performed using Odyssey 3.0 software. Inhibition of Akt activity was calculated by band intensities using the formula: […]
Index was evaluated by % of AI. Data represent Index+(20˜60%), ++(60%˜80%), +++(80%˜90%), and ++++>90%.

The mark [1] stands for this setting: HCC70 cells, compound 500 nM, 60 min, inhibition of Akt activity from band intensities, read-out: Index of AI (HCC70) p-AKT Thr 308.
Where [2] appears, read: HCC70 cells, compound 500 nM, 60 min, inhibition of Akt activity from band intensities, read-out: Index of AI (HCC70) p-AKT ser 473.

SMILES strings stand for the structures. Where two headings read alike, the source gives them in different places.

In the case of `C[C@H]1Cc2c(F)cc(F)cc2N1Cc1cc(C(=O)N(C)C)cc2c(=O)cc(N3CCOCC3)oc12` (single isomer, unassigned) [Compound 64], the inhibition at 0.5 µM reads like this: under setting [1], greater than 90%; under setting [2], greater than 90%.
Turning to `C[C@@H]1Cc2c(F)cc(F)cc2N1Cc1cc(C(=O)N(C)C)cc2c(=O)cc(N3CCOCC3)oc12` (single isomer, unassigned) [Compound 65], the inhibition at 0.5 µM reads like this: under setting [1], 20 to 60%; under setting [2], 20 to 60%.
Consider `C[C@H]1Cc2c(F)cccc2N1Cc1cc(C(=O)N(C)C)cc2c(=O)cc(N3CCOCC3)oc12` (single isomer, unassigned) [Compound 102], for which the inhibition at 0.5 µM is, setting by setting: under setting [1], greater than 90%; under setting [2], greater than 90%.
For the compound `O=c1cc(N2CCOCC2)oc2c(CNc3cc(F)cc(F)c3)cc(N3CCOCC3)cc12` [Compound 1, 8-(((3,5-difluorophenyl)amino)methyl)-2,6-dimorpholino-4H-chromen-4-one], the inhibition at 0.5 µM runs as follows: under setting [1], 60 to 80%; under setting [2], 60 to 80%.
For `CN(C)c1cc(CNc2cc(F)cc(F)c2)c2oc(N3CCOCC3)cc(=O)c2c1` [Compound 2, 8-(((3,5-difluorophenyl)amino)methyl)-6-(dimethylamino)-2-morpholino-4H-chromen-4-one], the inhibition at 0.5 µM is, setting by setting: under setting [1], 60 to 80%; under setting [2], 60 to 80%.
Take `N#Cc1cc(CNc2cc(F)cc(F)c2)c2oc(N3CCOCC3)cc(=O)c2c1` [Compound 3, 8-(((3,5-difluorophenyl)amino)methyl)-2-morpholino-4-oxo-4H-chromene-6-carbonitrile]: the inhibition at 0.5 µM is 60 to 80% under setting [1] and 60 to 80% under setting [2].
Turning to `CCOc1cc(CNc2cc(F)cc(F)c2)c2oc(N3CCOCC3)cc(=O)c2c1` [Compound 4, 8-(((3,5-difluorophenyl)amino)methyl)-6-ethoxy-2-morpholino-4H-chromen-4-one], the inhibition at 0.5 µM lay in the range of 60 to 80% under setting [1] and 60 to 80% under setting [2].
In the case of `C#Cc1cc(CNc2cc(F)cc(F)c2)c2oc(N3CCOCC3)cc(=O)c2c1` [Compound 5, 8-(((3,5-difluorophenyl)amino)methyl)-6-ethynyl-2-morpholino-4H-chromen-4-one], the inhibition at 0.5 µM by setting is: (read-out: Index of AI (HCC70) p-AKT Thr 308) 60 to 80%; (read-out: Index of AI (HCC70) p-AKT ser 473) 60 to 80%.
For `O=c1cc(N2CCOCC2)oc2c(CNc3cc(F)cc(F)c3)cc(C3CC3)cc12` [Compound 6, 6-cyclopropyl-8-(((3,5-difluorophenyl)amino)methyl)-2-morpholino-4H-chromen-4-one], the inhibition at 0.5 µM under setting [1] was 60 to 80% and the inhibition at 0.5 µM under setting [2] fell in the range of 60 to 80%.
Take `CN(C)C(=O)Nc1cc(CNc2cc(F)cc(F)c2)c2oc(N3CCOCC3)cc(=O)c2c1` [Compound 7, 3-(8-(((3,5-difluorophenyl)amino)methyl)-2-morpholino-4-oxo-4H-chromen-6-yl)-1,1-dimethylurea]: the inhibition at 0.5 µM under setting [1] lay in the range of 60 to 80% and the inhibition at 0.5 µM under setting [2] is 60 to 80%.
Consider `CC(=O)Nc1cc(CNc2cc(F)cc(F)c2)c2oc(N3CCOCC3)cc(=O)c2c1` [Compound 8, N-(8-(((3,5-difluorophenyl)amino)methyl)-2-morpholino-4-oxo-4H-chromen-6-yl)acetamide], for which the inhibition at 0.5 µM under setting [1] was 60 to 80% and the inhibition at 0.5 µM under setting [2] fell in the range of 60 to 80%.
Regarding `CC(=O)N(C)c1cc(C(C)Nc2cc(F)cc(F)c2)c2oc(N3CCOCC3)cc(=O)c2c1` (centres unmarked) [Compound 9, N-(8-(1-((3,5-difluorophenyl)amino)ethyl)-2-morpholino-4-oxo-4H-chromen-6-yl)-N-methylacetamide], the inhibition at 0.5 µM reads like this: under setting [1], 80 to 90%; under setting [2], 80 to 90%.
For `CCC(=O)Nc1cc(C(C)Nc2cc(F)cc(F)c2)c2oc(N3CCOCC3)cc(=O)c2c1` (centres unmarked) [Compound 11, N-(8-(1-((3,5-difluorophenyl)amino)ethyl)-2-morpholino-4-oxo-4H-chromen-6-yl)propionamide], the inhibition at 0.5 µM is, setting by setting: under setting [1], greater than 90%; under setting [2], greater than 90%.
On to `CC(Nc1cc(F)cc(F)c1)c1cc(N=C(N)N)cc2c(=O)cc(N3CCOCC3)oc12` (centres unmarked) [Compound 14, 2-(8-(1-((3,5-difluorophenyl)amino)ethyl)-2-morpholino-4-oxo-4H-chromen-6-yl)guanidine], for which the inhibition at 0.5 µM reads like this: under setting [1], 20 to 60%; under setting [2], 20 to 60%.
In the case of `CC(Nc1cc(F)cc(F)c1)c1cc(S(=O)(=O)N2CC(N)C2)cc2c(=O)cc(N3CCOCC3)oc12` (centres unmarked) [Compound 17, 6-((3-aminoazetidin-1-yl)sulfonyl)-8-(1-((3,5-difluorophenyl)amino)ethyl)-2-morpholino-4H-chromen-4-one], the inhibition at 0.5 µM by setting is: under setting [1], 60 to 80%; under setting [2], 60 to 80%.
Take `CC(Nc1cc(F)cc(F)c1)c1cc(NC2=NCCN2)cc2c(=O)cc(N3CCOCC3)oc12` (centres unmarked) [Compound 20, 8-(1-((3,5-difluorophenyl)amino)ethyl)-6-((4,5-dihydro-1H-imidazol-2-yl)amino)-2-morpholino-4H-chromen-4-one]: the inhibition at 0.5 µM under setting [1] is 60 to 80% and the inhibition at 0.5 µM under setting [2] lay in the range of 60 to 80%.
`CC(Nc1cc(F)cc(F)c1)c1cc(NC(=O)CC#N)cc2c(=O)cc(N3CCOCC3)oc12` (centres unmarked) [Compound 22, 2-cyano-N-(8-(1-((3,5-difluorophenyl)amino)ethyl)-2-morpholino-4-oxo-4H-chromen-6-yl)acetamide]: the inhibition at 0.5 µM runs as follows: under setting [1], greater than 90%; under setting [2], greater than 90%.
On to `C/C(O)=C(\C#N)C(=O)Nc1cc(C(C)Nc2cc(F)cc(F)c2)c2oc(N3CCOCC3)cc(=O)c2c1` (centres unmarked) [Compound 23, (Z)-2-cyano-N-(8-(1-((3,5-difluorophenyl)amino)ethyl)-2-morpholino-4-oxo-4H-chromen-6-yl)-3-hydroxybut-2-enamide], for which the inhibition at 0.5 µM under setting [1] was in the range of 60 to 80% and the inhibition at 0.5 µM under setting [2] is 60 to 80%.
Consider `CC(Nc1cc(F)cc(F)c1)c1cc(CC(=O)N(C)C)cc2c(=O)cc(N3CCOCC3)oc12` (centres unmarked) [Compound 24, 2-(8-(1-((3,5-difluorophenyl)amino)ethyl)-2-morpholino-4-oxo-4H-chromen-6-yl)-N,N-dimethylacetamide], for which the inhibition at 0.5 µM by setting is: under setting [1], greater than 90%; under setting [2], greater than 90%.
With `CC(Nc1cc(F)cc(F)c1)c1cc(C(=O)N2CC3(C2)CS(=O)(=O)C3)cc2c(=O)cc(N3CCOCC3)oc12` (centres unmarked) [Compound 28, 8-(1-((3,5-difluorophenyl)amino)ethyl)-6-(2,2-dioxido-2-thia-6-azaspiro[3.3]heptane-6-carbonyl)-2-morpholino-4H-chromen-4-one], the inhibition at 0.5 µM by setting is: under setting [1], 60 to 80%; under setting [2], 60 to 80%.
Regarding `CCC(Nc1cc(F)cc(F)c1)c1cc(C(=O)N(C)C)cc2c(=O)cc(N3CCOCC3)oc12` (centres unmarked) [Compound 31, 8-(1-((3,5-difluorophenyl)amino)propyl)-N,N-dimethyl-2-morpholino-4-oxo-4H-chromene-6-carboxamide], the inhibition at 0.5 µM runs as follows: under setting [1], greater than 90%; under setting [2], greater than 90%.
Take `CN(C)C(=O)c1cc(CN2CCc3cccc(Cl)c32)c2oc(N3CCOCC3)cc(=O)c2c1` [Compound 36, 8-((7-chloroindolin-1-yl)methyl)-N,N-dimethyl-2-morpholino-4-oxo-4H-chromene-6-carboxamide]: the inhibition at 0.5 µM by setting is: under setting [1], greater than 90%; under setting [2], greater than 90%.
For `CC(c1cc(C(=O)N(C)C)cc2c(=O)cc(N3CCOCC3)oc12)N1CCc2c(F)cc(F)cc21` (centres unmarked) [Compound 37, 8-(1-(4,6-difluoroindolin-1-yl)ethyl)-N,N-dimethyl-2-morpholino-4-oxo-4H-chromene-6-carboxamide], the inhibition at 0.5 µM runs as follows: under setting [1], 80 to 90%; under setting [2], 80 to 90%.
Regarding `CN(C)CCN(C)C(=O)c1cc(CN2CCc3c(F)cc(F)cc32)c2oc(N3CCOCC3)cc(=O)c2c1` [Compound 40, 8-((4,6-difluoroindolin-1-yl)methyl)-N-(2-(dimethylamino)ethyl)-N-methyl-2-morpholino-4-oxo-4H-chromene-6-carboxamide], the inhibition at 0.5 µM by setting is: under setting [1], greater than 90%; under setting [2], greater than 90%.
`O=C(c1cc(CN2CCc3c(F)cc(F)cc32)c2oc(N3CCOCC3)cc(=O)c2c1)N1CCOCC1` [Compound 41, 8-((4,6-difluoroindolin-1-yl)methyl)-6-(morpholine-4-carbonyl)-2-morpholino-4H-chromen-4-one]: the inhibition at 0.5 µM fell in the range of 80 to 90% under setting [1] and 80 to 90% under setting [2].
